{"source": "patent US8865734B2", "about": "(priority 2010, dated 2014)", "key": {"[1]": {"tested_on": "M. tuberculosis drug sensitive strain (lab strain H37Rv)", "assay": "MIC by the Alamar blue method, drug sensitive strain", "assay_type": "cell-based", "details": "Mycobacterium tuberculosis"}, "[2]": {"tested_on": "in vitro grown Mycobacteria (M. tuberculosis)", "assay": "QUM: Quantification of in vitro grown Mycobacteria (in vitro growth fluorescence assay)", "assay_type": "cell-based", "details": "Mycobacterium tuberculosis; MIC, 80% bacterial growth inhibition; in vitro growth; read-out: QUM", "in_short": "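Mycobacterium tuberculosis grown in vitro was quantified by fluorescence across compound dose responses. MIC is defined as the minimum concentration producing 80% growth inhibition.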"}, "[3]": {"tested_on": "M. tuberculosis inside the host macrophage", "assay": "QIM: Quantification of Intracellular Mycobacteria (intracellular growth assay, phenotypic cell-based)", "details": "Mycobacterium tuberculosis; MIC, 80% bacterial growth inhibition; intracellular growth; read-out: QIM", "in_short": "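Phenotypic high-content assay measuring M. tuberculosis multiplication inside host macrophages, run as dose response. MIC is the minimum compound concentration giving 80% bacterial growth inhibition.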"}, "[4]": {"tested_on": "Mycobacterium tuberculosis H37Rv", "assay": "Kinetics of inhibition and bactericidal activity (CFU plating)", "assay_type": "cell-based", "details": "for colony forming unit (CFU) number (bactericidal activity): after incubation with various concentrations; for growth inhibition: reached around the same time as PA-824, 14 day period", "description": "Mycobacterium tuberculosis H37Rv was incubated at an initial inoculum of 2×10^6 bacteria/ml in Middlebrook 7H9 media containing an increasing concentration of representative compound 47 or 54. Culture samples were collected over a 14 day period. Serial dilutions of the bacterial suspension were performed and plated on 7H 10 medium. Colonies were counted for the different dilutions after 3 weeks incubation at 37° C. under 5% CO2 and compared to that obtained for the DMSO negative and PA-824 positive controls. PA-824 (Stover et al., 2000) is a TB Alliance small chemical compound currently in phase II clinical trials for the treatment of tuberculosis. PA-824 possibly acts via generation of radicals having non-specific toxic effects."}, "M. tuberculosis H37Rv": {"tested_on": "M. tuberculosis H37Rv", "assay": "In vivo activity in a murine model of acute tuberculosis infection", "design": "species or system BalbC mice", "details": "4 weeks of treatment", "description": "The effect of compounds 177 and 185 on the bacterial load of TB-infected mice was compared to that of the reference compound Isoniazid (INH). 8-week old female BalbC mice were infected with 6×10^5 M. tuberculosis H37Rv via intranasal instillation. Mice were sacrificed at day 1 to control the number of CFU in the lungs. In the acute model of infection, mice were treated for 4 weeks, starting at day 1. Compounds were freshly dissolved in a 0.5% methylcellulose solution and administered by oral gavage 5 times/week. Bacterial load was assessed in lungs and spleen after homogenizing the organs in 1×PBS. Serial dilutions of organs homogenates were spread on Middlebrook 7H11 plates and CFU were determined after 3 weeks incubation at 37° C. under 5% CO2."}}, "note": "Structures can show the parent of a compound that is named as a salt.", "data": [{"smiles": "CCc1nc2ccccn2c1C(=O)NCc1ccc(-c2ccccc2)cc1", "note": "[Compound 47, N-(Biphenyl-4-ylmethyl)-2-ethylimidazo[1,2-a]pyridine-3-carboxamide]", "values": [{"measurement": "MIC80", "setting": "[1]", "result": 1.25, "unit": "µM"}, {"measurement": "MIC", "setting": "[2]", "result": "< 1", "unit": "µM"}, {"measurement": "MIC", "setting": "[3]", "result": "< 1", "unit": "µM"}, {"measurement": "colony forming unit (CFU) number (bactericidal activity)", "setting": "[4]", "result": "decrease"}, {"measurement": "growth inhibition", "setting": "[4]", "result": 100, "unit": "%"}]}, {"smiles": "CCc1nc2ccccn2c1C(=O)NCc1ccc(Oc2ccccc2)cc1", "note": "[Compound 54, 2-Ethyl-N-(4-phenoxybenzyl)imidazo[1,2-a]pyridine-3-carboxamide]", "values": [{"measurement": "MIC80", "setting": "[1]", "result": 0.625, "unit": "µM"}, {"measurement": "MIC", "setting": "[2]", "result": "< 1", "unit": "µM"}, {"measurement": "MIC", "setting": "[3]", "result": "< 1", "unit": "µM"}, {"measurement": "colony forming unit (CFU) number (bactericidal activity)", "setting": "[4]", "result": "decrease"}, {"measurement": "growth inhibition", "setting": "[4]", "result": 100, "unit": "%"}]}, {"smiles": "CCc1nc2cc(Cl)ccn2c1C(=O)NCc1ccc(N2CCN(c3ccc(F)cc3)CC2)cc1", "note": "[Compound 177, 7-Chloro-2-ethyl-N-(4-(4-(4-fluorophenyl)piperazin-1-yl)benzyl)imidazo[1,2-a]pyridine-3-carboxamide trihydrochloride]", "values": [{"measurement": "CFU in the spleen", "setting": "M. tuberculosis H37Rv; 50 mg/kg orally", "result": "No CFU were detected"}, {"measurement": "reduction of CFU in the lungs compared to untreated mice", "setting": "M. tuberculosis H37Rv; 50 mg/kg orally", "result": "~2", "unit": "log CFU"}]}, {"smiles": "CCc1nc2ccc(Cl)cn2c1C(=O)NCc1ccc(Oc2ccc(OC(F)(F)F)cc2)cc1", "note": "[Compound 185, 6-Chloro-2-ethyl-N-(4-(4-(trifluoromethoxy)phenoxy)benzyl)imidazo[1,2-a]pyridine-3-carboxamide]", "values": [{"measurement": "CFU in the spleen", "setting": "M. tuberculosis H37Rv; 50 mg/kg orally", "result": "No CFU were detected"}, {"measurement": "reduction of CFU in the lungs compared to untreated mice", "setting": "M. tuberculosis H37Rv; 50 mg/kg orally", "result": "~2", "unit": "log CFU"}, {"measurement": "MIC", "setting": "[2]", "result": "< 1", "unit": "µM"}, {"measurement": "MIC", "setting": "[3]", "result": "< 1", "unit": "µM"}]}, {"smiles": "CCc1nc2cc(-c3cccnc3)ccn2c1C(=O)NCc1ccc(N2CCOCC2)cc1", "note": "[Compound 326, 2-Ethyl-N-(4-morpholinobenzyl)-7-(pyridin-3-yl)imidazo[1,2-a]pyridine-3-carboxamide]", "values": [{"measurement": "melting point", "result": 208.5, "unit": "°C"}, {"measurement": "MIC", "setting": "[2]", "result": "> 20", "unit": "µM"}, {"measurement": "MIC", "setting": "[3]", "result": "> 20", "unit": "µM"}]}, {"smiles": "CCc1nc2cc(N3CCN(C)CC3)ccn2c1C(=O)NCc1ccc(N2CCOCC2)cc1", "note": "[Compound 328, 2-Ethyl-7-(4-methylpiperazin-1-yl)-N-(4-morpholinobenzyl)imidazo[1,2-a]pyridine-3-carboxamide]", "values": [{"measurement": "melting point", "result": 204.8, "unit": "°C"}, {"measurement": "MIC", "setting": "[2]", "result": "> 20", "unit": "µM"}, {"measurement": "MIC", "setting": "[3]", "result": "> 20", "unit": "µM"}]}, {"smiles": "CCc1nc2cc(N3CCN(c4ccccc4)CC3)ccn2c1C(=O)NCc1ccc(C(F)(F)F)cc1", "note": "[Compound 330, 2-Ethyl-7-(4-phenylpiperazin-1-yl)-N-(4-(trifluoromethyl)benzyl)imidazo[1,2-a]pyridine-3-carboxamide]", "values": [{"measurement": "melting point", "result": 235.2, "unit": "°C"}, {"measurement": "MIC", "setting": "[2]", "result": "> 20", "unit": "µM"}, {"measurement": "MIC", "setting": "[3]", "result": "< 1", "unit": "µM"}]}, {"smiles": "CCc1nc2cc(N3CCN(Cc4ccc(F)cc4)CC3)ccn2c1C(=O)NCc1ccc(N2CCOCC2)cc1", "note": "[Compound 331, 2-Ethyl-7-(4-(4-fluorobenzyl)piperazin-1-yl)-N-(4-morpholinobenzyl)imidazo[1,2-a]pyridine-3-carboxamide]", "values": [{"measurement": "melting point", "result": 212.5, "unit": "°C"}, {"measurement": "MIC", "setting": "[2]", "result": "> 20", "unit": "µM"}, {"measurement": "MIC", "setting": "[3]", "result": "> 20", "unit": "µM"}]}, {"smiles": "NNC(=O)c1ccncc1", "note": "[INH, Isoniazid, reference compound]", "values": [{"measurement": "MIC80", "setting": "[1]", "result": 1.25, "unit": "µM"}, {"measurement": "CFU in the lungs", "setting": "M. tuberculosis H37Rv; 25 mg/kg", "result": "No CFU were recovered"}, {"measurement": "CFU in the spleen", "setting": "M. tuberculosis H37Rv; 25 mg/kg", "result": "No CFU were recovered"}]}, {"smiles": "COc1c(N2C[C@@H]3CCCN[C@@H]3C2)c(F)cc2c(=O)c(C(=O)O)cn(C3CC3)c12", "note": "[MFX, moxifloxacin, reference compound]", "values": [{"measurement": "MIC80", "setting": "[1]", "result": 1.25, "unit": "µM"}]}]}
